PubChem BioAssay AID1645868 (Buhrlage Lab, Dana-Farber Cancer Institute and Novartis …, 2021)
The source made the active and inactive calls.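 Rule for the calls: active = maximal percent inhibition of the deubiquitinase OTUD3 of at least 30% across the tested doses; inactive = the rest.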

Target: OTU domain-containing protein 3 (Homo sapiens) (UniProt Q5T2D3)
Experiment: Validation of screening hits, potency titration, in vitro enzymatic, OTU domain-containing protein 3 DUB inhibitors (AID 1645868)
Settings: purified OTUD3, ubiquitin-rhodamine cleavage fluorescence, 2 h

Chain of OTU domain-containing protein 3 (Homo sapiens) (Q5T2D3 whole entry, looked up, the tested form may be a part): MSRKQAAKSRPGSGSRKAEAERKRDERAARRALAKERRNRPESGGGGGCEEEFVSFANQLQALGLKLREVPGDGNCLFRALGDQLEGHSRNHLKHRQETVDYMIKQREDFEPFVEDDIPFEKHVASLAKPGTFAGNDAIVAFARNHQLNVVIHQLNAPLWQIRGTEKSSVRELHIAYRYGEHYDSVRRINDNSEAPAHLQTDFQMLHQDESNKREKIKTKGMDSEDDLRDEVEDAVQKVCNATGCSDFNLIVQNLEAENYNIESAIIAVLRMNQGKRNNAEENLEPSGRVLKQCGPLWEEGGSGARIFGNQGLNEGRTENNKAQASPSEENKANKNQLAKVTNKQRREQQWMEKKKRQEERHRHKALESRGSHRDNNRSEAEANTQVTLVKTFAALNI

Structure (SMILES)	IC50
COc1cccc(CCNC(=O)CCn2c(=O)c(C)nc3cc(C)c(C)cc32)c1	> 50 µM (inactive)
O=C(OCc1ccc(F)cc1)c1ccc2ccccc2n1	> 50 µM (inactive)
CCN(c1ccccc1)S(=O)(=O)c1ccc(C(=O)Nc2nc3ccc(F)cc3s2)cc1	> 50 µM (inactive)
CC(C(=O)NCc1ccc2c(c1)OCO2)N1CCN(c2ccc(O)cc2)CC1 (stereo not given)	> 50 µM (inactive)
O=c1[nH]c(-c2ccccn2)nc2c1CCN(Cc1cnn(-c3ccccc3)c1)C2	> 50 µM (inactive)
Cc1ccc(C2=Nc3ccccc3N(CC(=O)Nc3cccc(C)c3C)C(=O)C2)cc1C	> 50 µM (inactive)
CC1CCCN(CCCNC(=O)c2ccc(N3CCc4ccccc43)s2)C1 (stereo not given)	> 50 µM (inactive)
CCc1nc2cc(NC(=O)c3cccc(N4CCCC4=O)c3)ccc2n1C	> 50 µM (inactive)
CC1CCN(S(=O)(=O)c2ccc(C(=O)Nc3ccc(S(N)(=O)=O)cc3)cc2)CC1	> 50 µM (inactive)
O=C(COc1ccc2c(-c3ccccc3)cc(=O)oc2c1)Nc1cccnc1	21.5 µM
C=C1Nc2ccccc2C(=O)N1c1cccc(NC(=O)c2ccc(C)c(C)c2)c1	> 50 µM (inactive)
COc1cc(O)c2c(c1)C1=CC(=O)C(O)=C[C@]1(C)OC2=O	29.9 µM
O=c1[nH]c(C2CCN(S(=O)(=O)c3ccc(S(=O)(=O)NC4CCCC4)cc3)CC2)nc2c1nnn2Cc1cccc(Cl)c1	> 50 µM (inactive)
CC(C)Oc1ccc(C(=O)Nc2cccc(S(=O)(=O)N3CCCC3)c2)cc1	> 50 µM (inactive)
CN(C)S(=O)(=O)N1CCCC2(C1)Nc1cccnc1NC2=NC1CCCC1 (stereo not given)	> 50 µM (inactive)
O=C1c2ccccc2-n2c1nc1ccccc1c2=O	> 50 µM (inactive)
Cc1ccn(-c2ccc(NC(=O)c3ccccc3Sc3ccccc3C#N)cc2)n1	44.5 µM
CCn1c(SCc2nc(N)c3ccccc3n2)nc2ccccc21	> 50 µM (inactive)
CN1CCN(c2ccc3nc(-c4ccccc4)c(-c4ccccc4)nc3c2)CC1	> 50 µM (inactive)
COc1cccc(-c2cc(C(=O)N3CCN(c4ccc(N5CCOCC5)nn4)CC3)[nH]n2)c1	> 50 µM (inactive)
O=C(CSc1nc2cc(C(F)(F)F)ccc2s1)NCC(=O)c1ccccc1	22 µM
O=C1CN(C(=O)COC(=O)CCCN2C(=O)c3cccc4cccc(c34)C2=O)c2ccccc2N1	> 50 µM (inactive)
O=C(Nc1ccccc1)C1CCCN(C(=O)c2cc3ccccc3[nH]2)C1 (stereo not given)	43.2 µM
Cc1nc(-c2noc(-c3ccncc3)n2)cn1CC(=O)N1CCN(c2ccc(F)cc2)CC1	> 50 µM (inactive)

Structure (SMILES)	IC50
N#Cc1ccc(COC(=O)c2ccc3ccccc3n2)cc1	> 50 µM (inactive)
COc1ccc(C2SCC(=O)Nc3c2c(=O)[nH]n3C2CCCCCC2)cc1 (stereo not given)	30.1 µM
O=C1CC(c2cc3c(cc2Br)OCO3)c2cc3c(cc2N1)OCCO3 (stereo not given)	18.7 µM
CC(C)CCn1c(=O)c2ccccc2n2c(CCC(=O)NC3CCCCCC3)nnc12	> 50 µM (inactive)
O=C(CSc1nnnn1-c1ccccc1)Nc1ccccc1	> 50 µM (inactive)
COc1cccc(-c2nc(C(N)=O)c3[nH]c(=O)n(-c4cccc(Cl)c4)c3n2)c1OC	> 50 µM (inactive)
COc1ccc(NC(=O)CSc2oc(-c3ccc(C)cc3)nc2S(=O)(=O)c2ccc(Br)cc2)c(OC)c1	> 50 µM (inactive)
CCCN1CCN(C(=O)c2cc(NC(=O)C3CCC3)cc3nc(C)ccc23)CC1	> 50 µM (inactive)
CCc1nc(-c2cccc(NC(=O)c3ccc(C#N)cc3F)c2)no1	> 50 µM (inactive)
COc1ccc(CC(NC(C)=O)C(=O)NC2CCN(c3c(Cc4ccccc4)c(C)nc4ncnn34)CC2)cc1OC (stereo not given)	> 50 µM (inactive)
c1ccc(-c2nc(-c3nnn(-c4ccccc4)c3-c3ccncc3)no2)cc1	26.8 µM
N#Cc1cccc(NC(=O)Cn2cccc(-c3nc(-c4ccccc4)no3)c2=O)c1	> 50 µM (inactive)
CC(=O)N1CCc2cc(CNC(=O)Nc3cc(C)ccc3C)ccc21	> 50 µM (inactive)
O=C(c1cnccn1)N1CCc2[nH]c3ccc(F)cc3c2C1	> 50 µM (inactive)
COc1cccc(N2CCN(C(=O)CCNS(=O)(=O)c3ccc4c(c3)CCC(=O)N4)CC2)c1	> 50 µM (inactive)
Cc1nc(N2CCCC2)ncc1-c1cc(=O)[nH]c(N2CCc3ccccc3C2)n1	29.3 µM
CC(=O)c1ccc(NC(=O)c2nc3ccccc3nc2N2CCOCC2)cc1	> 50 µM (inactive)
Cc1cc(C)nc(SCCn2c(N3CCC(Cc4ccccc4)CC3)nc3c2c(=O)n(C)c(=O)n3C)n1	> 50 µM (inactive)
COc1ccc(S(=O)(=O)N(C)Cc2cccs2)cc1OC	> 50 µM (inactive)
Cc1sc(NC(=O)/C=C/c2ccco2)nc1-c1ccccc1	> 50 µM (inactive)
COc1cc(-c2ccno2)ccc1S(=O)(=O)Nc1ccccc1Cl	> 50 µM (inactive)
COc1ccc(-c2cc(C(=O)N3CCN(c4ccc([N+](=O)[O-])cc4)CC3)[nH]n2)cc1	> 50 µM (inactive)
Cc1cccc(C(=O)N2CCN3Cc4ccccc4N(C)CC3C2)c1 (stereo not given)	> 50 µM (inactive)
Cc1c(C(=O)c2ccccc2)c2ccccn2c1CCc1ccccn1	> 50 µM (inactive)

Structure (SMILES)	IC50
COc1ccccc1C(=O)N1CCc2[nH]c3ccc(F)cc3c2C1	> 50 µM (inactive)
O=C(CCc1ccccc1)N(CC1CCCO1)c1nc2ccccc2s1 (stereo not given)	> 50 µM (inactive)
O=C(Nc1ccc2c(c1)OCCO2)C1CCN(C(=O)c2ccccc2)CC1	> 50 µM (inactive)
c1ccc2c(Cc3nc(-c4ccncc4)no3)cccc2c1	> 50 µM (inactive)
N#Cc1ccc(Cl)cc1NC(=O)COc1cccnc1[N+](=O)[O-]	> 50 µM (inactive)
Cn1c(=O)[nH]c2nncnc2c1=O	> 50 µM (inactive)
COc1ccc(NC(=O)C2CCCN(S(=O)(=O)N3CCCCCC3)C2)cc1 (stereo not given)	> 50 µM (inactive)
O=C(OCCCN1C(=O)c2cccc3c(N4CCCCC4)ccc(c23)C1=O)c1ccccn1	> 50 µM (inactive)
Fc1ccccc1Cc1nc(-c2ccc3nncn3c2)no1	> 50 µM (inactive)
O=C(OCc1cccc(Cl)c1)c1ccc2ccccc2n1	> 50 µM (inactive)
O=C1COc2ccccc2N1Cc1noc(-c2ccccc2)n1	> 50 µM (inactive)
COc1cc(C2SCC(=O)Nc3c2c(-c2ccccc2)nn3-c2ccccc2)cc(OC)c1OC (stereo not given)	> 50 µM (inactive)
Nc1c(C(=O)NCCc2ccccc2)nnn1-c1ccc(F)cc1	> 50 µM (inactive)
O=C(Nc1ccc2c(c1)OCO2)C1CCN(Cc2nc3ccccc3s2)CC1	> 50 µM (inactive)
CN(C)c1ccc(C2CC(c3c(O)n(C)c(=O)[nH]c3=O)=Nc3ccccc3S2)cc1 (stereo not given)	> 50 µM (inactive)
CCOc1ccccc1NC(=O)Cn1c(=O)n(CCCC(=O)NCc2ccc(C)cc2)c(=O)c2sccc21	2.78 µM
O=C(Nc1ccc(F)c(Cl)c1)c1ccc(N2CCCCS2(=O)=O)cc1Cl	> 50 µM (inactive)
O=C(CN1C=NC2=NS(=O)(=O)c3ccccc3N21)Nc1cc(F)ccc1F	31.8 µM
O=C(Nc1ccc2c(c1)OCCO2)c1ccc(N2CCCCC2)nn1	> 50 µM (inactive)
COc1cc2c(cc1NC(=O)c1ccc(-n3cnnn3)cc1)oc1ccccc12	> 50 µM (inactive)
Cc1cccc(C(=O)N2CCc3cc(-c4nc(NC(=O)CN5CCc6ccccc6C5)sc4C)ccc32)c1	> 50 µM (inactive)
FC(F)(F)c1ccccc1CCN1CCc2nc3ccc(Cl)cc3cc2C1	> 50 µM (inactive)
O=C1c2c(O)cccc2C2(Oc3cccc4cccc(c34)O2)C2OC12 (stereo not given)	22.5 µM
COc1ccc2c(C)c(CC(=O)N3CCC[C@H]3C(=O)O)c(=O)oc2c1C	> 50 µM (inactive)

Structure (SMILES)	IC50
CCCC(=O)c1c[nH]c(C(=O)NCc2ccc(F)cc2)c1	32.9 µM
CN(C)c1cc(-n2cnc(C(=O)NCc3ccccc3Cl)c2)ncn1	30.4 µM
CCn1cc2c(n1)c(=O)n(Cc1ccc(C)cc1)c(=O)n2CC(=O)Nc1ccc(F)cc1	22.7 µM
COc1ccc(CCNC(=O)CCCCn2c(=O)c3ccccc3n(Cc3cccc(Cl)c3)c2=O)cc1OC	29.9 µM
COc1cc(NC(=O)COC(=O)Cn2cnc3ccccc32)cc(OC)c1	> 50 µM (inactive)
O=C(CNC(=O)c1cc2ccccc2[nH]1)Nc1ccc2c(c1)OCCO2	> 50 µM (inactive)
CCOc1ccc(Nc2cc(C(=O)NCCc3ccccc3)c3ccccc3n2)cc1	35.4 µM
Cc1ccccc1NC(=O)Nc1ccccc1OCc1cc(=O)n2cccc(C)c2n1	4.24 µM
COc1cccc(CN2CCc3nc4nc(C)ccc4cc3C2)c1	> 50 µM (inactive)
Cn1c(CCNC(=O)c2[nH]nc3c2CCc2ccccc2-3)nc2ccccc21	29.3 µM
O=C(NCCN1CCCC1)C1CCN(c2cnc(N3CCCCC3)nc2)CC1	> 50 µM (inactive)
CCC1OC(O)(C(C)C(O)C(C)C2OC(=O)/C(C)=C/C(C)=CC(C)C(O)C(C)C/C(C)=C/C=C/C2OC)CC(OC(=O)/C=C/C(=O)NC2=C(O)CCC2=O)C1C (stereo not given)	> 50 µM (inactive)
Cc1ccc2c(c1)N=C(c1ccc([N+](=O)[O-])cc1)CO2	> 50 µM (inactive)
Cc1cc(C(F)(F)F)n2nc(C3CCN(C(=O)c4cnn(C)c4C)C3)cc2n1 (stereo not given)	> 50 µM (inactive)
CCOc1ccccc1NC(=O)COc1cc(OC)ccc1C(=O)c1ccccc1	> 5 µM (inactive)
O=C(Cn1cc(S(=O)(=O)Cc2ccc(Cl)cc2)c2ccccc21)N1CCCCC1	> 50 µM (inactive)
O=c1c(OC2O[C@H](CO)[C@H](O)[C@H](O)[C@H]2O)c(-c2ccc(O)cc2)oc2cc(O)cc(O)c12 (stereo not given in full)	49.9 µM
COc1ccccc1CNC(=O)CCCn1c(=O)c2ccccc2n(CC(=O)N2CCN(c3ccccc3)CC2)c1=O	25.5 µM
O=C(C1CCCN(S(=O)(=O)N2CCCCCC2)C1)N1CCN(c2ccccc2)CC1 (stereo not given)	> 50 µM (inactive)
Cc1ccc(NC(=O)c2ccc3nn(CC(=O)Nc4ccc(F)cc4F)c(=O)n3c2)cc1	> 50 µM (inactive)
Cc1cccc(CNC(=O)C2CCCN(S(=O)(=O)Cc3ccc(F)cc3)C2)c1 (stereo not given)	41.6 µM
O=S(=O)(Cc1nnc(-c2ccccc2C(F)(F)F)o1)c1ccc(Cl)cc1	> 50 µM (inactive)
O=c1sc2ccccc2c(=O)n1Cc1cccc(C(F)(F)F)c1	> 50 µM (inactive)
